Results on 2 molecules are retold here after patent US20250120946A1, “USE OF PYRROLE COMPOUND IN TREATMENT OF TUMORS” (NANJING SHIJIANG MEDICINE TECHNOLOGY CO., LTD, priority 2021, published 2025).

Experiment [1] has as its system NCI-H82 (human small cell lung cancer cell). Description: Cell viability, Promega CellTiter-Glo kit (intracellular ATP), NCI-H82. The class given is cell-based. The following applies: sensitive group, 3-4 days of culture, n=3, read-out: IC50 (50% inhibiting concentration), inhibitory effect on cell line. The protocol:
(§1) In the experiment, the IC50 value of sunitinib or sunitinib malate on various tumor cell lines was determined.

The subject of experiment [2] is G-401 (human renal carcinoma Wilms cell). As to the kind of experiment: Cell viability, Promega CellTiter-Glo kit (intracellular ATP), G-401. The class given is cell-based. As to conditions: sensitive group, 3-4 days of culture, n=3, read-out: IC50 (50% inhibiting concentration), inhibitory effect on cell line. On the procedure:
as §1
(§2) After 3-4 days of culture, the relevant IC50 (50% inhibiting concentration) was measured (n=3).
In general terms: ATP-based viability assays read luminescence as a measure of living cells.

The subject of experiment [3] is SW48 (human colon adenocarcinoma cell). Description: Cell viability, Promega CellTiter-Glo kit (intracellular ATP), SW48. The class given is cell-based. As to conditions: sensitive group, 3-4 days of culture, n=3, read-out: IC50 (50% inhibiting concentration), inhibitory effect on cell line. The protocol: as §1, §2
Experiment [4] has as its system WSU-DLCL2 (human diffuse large B-cell lymphoma). Description: Cell viability, Promega CellTiter-Glo kit (intracellular ATP), WSU-DLCL2. The class given is cell-based. As to conditions: sensitive group, 3-4 days of culture, n=3, read-out: IC50 (50% inhibiting concentration), inhibitory effect on cell line. The protocol:
as §1, §2

Experiment [5] has as its system CFPAC-1 (human pancreatic cancer cell). Description: Cell viability, Promega CellTiter-Glo kit (intracellular ATP), CFPAC-1. As to conditions: insensitive group, 3-4 days of culture, n=3, read-out: IC50 (50% inhibiting concentration), inhibitory effect on cell line. The class given is cell-based. The protocol:
as §1, §2

In experiment [6] the test system is 786-O (clear cell renal cell adenocarcinoma cell). As to the kind of experiment: Cell viability, Promega CellTiter-Glo kit (intracellular ATP), 786-O. As to conditions: insensitive group, 3-4 days of culture, n=3, read-out: IC50 (50% inhibiting concentration), inhibitory effect on cell line. The class given is cell-based, human. On the procedure: as §1, §2
The test system of experiment [7] is GB-1 (human glioblastoma cell). As to the kind of experiment: Cell viability, Promega CellTiter-Glo kit (intracellular ATP), GB-1. The class given is cell-based. The following applies: insensitive group, 3-4 days of culture, n=3, read-out: IC50 (50% inhibiting concentration), inhibitory effect on cell line. The protocol:
as §1, §2

Experiment [8] relates to SF126 (human glioblastoma multiforme cell). Description: Cell viability, Promega CellTiter-Glo kit (intracellular ATP), SF126. The class given is cell-based. The following applies: insensitive group, 3-4 days of culture, n=3, read-out: IC50 (50% inhibiting concentration), inhibitory effect on cell line. The protocol: as §1, §2
For experiment [9], the system named is control NCI-H82 cell (NCI-H82 (Con)). As to the kind of experiment: Cell viability, Promega CellTiter-Glo kit, control NCI-H82 cell. The class given is cell-based, human. As to conditions: n=3. The text has this:
(§3) The NNMT protein-overexpressing NCI-H82 cell (NCI-H82 (ov-NNMT)) was obtained by inserting the NNMT gene into NCI-H82 cell using a viral vector. The control NCI-H82 cell (NCI-H82 (Con)) was obtained by transfecting NCI-H82 cell with empty virus vector without carrying NNMT gene.

Experiment [10] relates to NNMT protein-overexpressing NCI-H82 cell (NCI-H82 (ov-NNMT)). Description: Cell viability, Promega CellTiter-Glo kit, NNMT protein-overexpressing NCI-H82 cell. Format: cell-based, human. As to conditions: n=3.
Source text: as §3

Experiment [11] relates to MDA-MB-453 (breast cancer cell). As to the kind of experiment: Cell viability, Promega CellTiter-Glo kit (intracellular ATP), MDA-MB-453. The following applies: sensitive group, 3-4 days of culture, n=3.

Read-outs that look alike come from different tables or passages of the source.

For the molecule `CCN(CC)CCNC(=O)c1c(C)[nH]c(/C=C2\C(=O)Nc3ccc(F)cc32)c1C` [Sunitinib malate, sunitinib malate], the IC50 stood at 1290 nM in experiment [1] (NCI-H82); 2500 nM in [2] (G-401); 1470 nM in experiment [3] (SW48); 1110 nM in [4] (WSU-DLCL2); 16800 nM in experiment [5] (CFPAC-1); 17800 nM in [6] (786-O). For the same molecule, the IC50 worked out at 12100 nM in [7]; 12400 nM in experiment [8] (SF126); 1210 nM in [9] (NCI-H82 transfected with empty virus vector without NNMT gene); 3310 nM in experiment [10] (NCI-H82 with NNMT gene inserted via viral vector (NNMT protein overexpressed)); 2330 nM in experiment [11] (read-out: IC50 (50% inhibiting concentration), inhibitory effect on cell line, MDA-MB-453).
As for `CCN(CC)CCNC(=O)c1c(C)[nH]c(/C=C2\C(=O)Nc3ccc(F)cc32)c1C` [Sunitinib, sunitinib], the IC50 in experiment [1] (Homo sapiens, NCI-H82, NCI-H82) was 1300 nM; in [2] (Homo sapiens, G-401, G-401) it was 2910 nM; in [3] (Homo sapiens, SW48, SW48) it was 1150 nM; in experiment [4] (Homo sapiens, WSUDLCL2, WSU-DLCL2) it was 1340 nM; in [5] (Homo sapiens, CFPAC-1, CFPAC-1) it was 19600 nM; in experiment [6] (Homo sapiens, 786-0, 786-O) it was 23700 nM. Further, the IC50 was 10700 nM in experiment [7] (Homo sapiens); 11400 nM in [8] (Homo sapiens, SF-126, SF126); 1240 nM in experiment [9] (Homo sapiens, NCI-H82, NCI-H82 transfected with empty virus vector without NNMT gene); 2960 nM in experiment [10] (Homo sapiens, NCI-H82, NCI-H82 with NNMT gene inserted via viral vector (NNMT protein overexpressed)); 2470 nM in experiment [11] (Homo sapiens, MDA-MB-453, read-out: IC50 (50% inhibiting concentration), inhibitory effect on cell line, MDA-MB-453).
